Active and inactive are the calls of the source. No cut-off for these calls is given here.
Legend:
[1] = tested on: Caenorhabditis elegans; experiment: Protection against amyloid beta aggregation-induced paralysis in Caenorhabditis elegans CL4176 harboring temperature-inducible human amyloid beta transgene assessed as inhibition of paralysis at 1 mM pretreated for 48 hrs at 15 degC followed by heat stress stimulation to 25 degC for 35 hrs relative to control; format: functional
[2] = tested on: Caenorhabditis elegans; experiment: Antialzheimer activity in Caenorhabditis elegans CL4176 harboring temperature-inducible human amyloid beta transgene assessed as reduction in amyloid beta aggregation at 1 mM pretreated for 48 hrs at 15 degC followed by heat stress stimulation to 25 degC for 35 hrs by thioflavin-s staining based microscopic analysis; format: functional, organism-based
[3] = tested on: Caenorhabditis elegans; experiment: Antialzheimer activity in Caenorhabditis elegans […] harboring temperature-inducible human amyloid beta transgene assessed as reduction in AChE level at 1 mM pretreated for 48 hrs at 15 degC followed by heat stress stimulation to 25 degC for 35 hrs by amplex red assay; format: functional, organism-based

Compound	inhibition at 1000 µM [1] [%]	inhibition [2]	Activity [3]
CC(C)(C)n1nnnc1C(Nc1ccc(F)cc1)c1cn(-c2ccccc2)nc1-c1cc2ccccc2o1 (stereo unspecified)	56.5	Active	Active
Cc1ccc(NC(c2cn(-c3ccccc3)nc2-c2cc3ccccc3o2)c2nnnn2C(C)(C)C)cc1F (stereo unspecified)	45.4	Active	Active
COc1ccc(NC(c2cn(-c3ccccc3)nc2-c2oc3ccccc3c2C)c2nnnn2C(C)(C)C)cc1 (stereo unspecified)	67.1	Active	Active
Cc1ccc(NC(c2cn(-c3ccc(F)cc3)nc2-c2cc3ccccc3o2)c2nnnn2C(C)(C)C)cc1 (stereo unspecified)	42.1	Active	–
CC(C)(C)n1nnnc1C(Nc1ccc(C(F)(F)F)c(Br)c1)c1cn(-c2ccccc2)nc1-c1cc2ccccc2o1 (stereo unspecified)	63.8	Active	–
Cc1ccc(NC(c2cn(-c3ccc(Cl)cc3)nc2-c2oc3ccccc3c2C)c2nnnn2C(C)(C)C)cc1 (stereo unspecified)	46.7	Active	Active

Source: ChEMBL document CHEMBL4308882, “Synthesis, biological evaluation and molecular dynamic simulations of novel Benzofuran-tetrazole derivatives as potential agents against Alzheimer's disease” (2019)
